Two compounds from EP0094644A1, “Utilization of a cholecalciferol derivative” (F. HOFFMANN-LA ROCHE & CO. Aktiengesellschaft, priority 1982, dated 1983) can be followed below.

SMILES strings stand for the structures.

What all share (type): in vivo
Test [1] has as its system Weissen Leghorn-Küken. Kind of test: Intestinal calcium absorption in chicks (serum 45Ca). As to conditions: for Serum ^45Ca: serum 45 min after isotope. From the text: b) Intestinale Calcium-Absorption bei Küken
Weissen Leghorn-Küken wird während 21 Tagen unter UV-freier Bestrahlung eine Vitamin D-arme Diät gegeben. Eine Einzeldosis der Testverbindung, gelöst in Propylenglykol, wird den Tieren oral verabreicht. Danach werden zu verschiedenen Zeitpunkten 2 µCi ^45 Ca (Chlorid) oral verabreicht und die Serumradioaktivität 45 Minuten nach Verabreichung des Isotops gemessen. In jeder Versuchsperiode werden Kontrolltiere verwendet, denen nur das Vehikel verabreicht wird. In jeder Behandlungsgruppe und jeder Kontrollgruppe werden 10 oder 11 Küken verwendet.

Test [2] has as its system Männliche Charles River Ratten. As to the kind of experiment: Prevention of EHDP-induced mineralisation block in rats (epiphyseal plate width). As to conditions: for Mittlere Breite der Epiphysenplatte: 10 days with EHDP 2 mg/Ratte s.c., EHDP alone 1182 ± 51, no EHDP 440 ± 2. The procedure: c) Verhütung der durch EHDP-induzierten Blockierung der Mineralisierung bei Ratten
Männliche Charles River Ratten werden 10 Tage mit Dinatrium-äthan-1-hydroxy-1,1-diphosphonat (EHDP) behandelt. Die Verbindung wird in destilliertem Wasser in einer Konzentration von 2 mg/0,2 ml/Ratte jeden Tag subcutan verabreicht. Die fluorierte Verbindung wird in Propylenglykol jeden Tag oral verabreicht. Am Tag nach der letzten Behandlung werden die Ratten seziert und deren Tibia durch Silberimprägnierung der Knochensalze behandelt. Die Breite der Epiphysenplatte wird mit einem Mikroskop gemessen. Zur Ermittlung der Aktivität wird die dosisabhängige Verengerung der durch EHDP-Induktion erweiterten Epiphysenplatte gemessen. In jeder Behandlungsgruppe werden 10 Ratten verwendet. Es werden auch positive (EHDP allein) und negative (Vehikel allein) Kontrollgruppen von 10 Ratten in jedem Versuch verwendet.

Test [3] relates to Weissen Leghorn-Küken. As to the kind of experiment: Antirachitic activity in chicks (tibia ash weight). As to conditions: for Mittleres Tibiaaschengewicht: 21 days, vitamin D-deficient diet, vehicle control 120,7 ± 5,9. From the text: a) Antirachitische Aktivität
Weissen Leghorn-Küken wird unter UV-freier Beleuchtung eine Vitamin D-arme, 1% Calcium und 0,7% Phosphor enthaltende Diät gegeben. Die in Propylenglykol gelöste Testverbindung wird während 21 Tagen den am Anfang des Versuchs 1 oder 2 Tage alten Küken oral verabreicht. Kontrolltiere werden mit dem Vehikel behandelt. Die Küken werden am Tag nach dem letzten Behandlungstag seziert und das Tibiaaschengewicht wird ermittelt. Es werden 9 oder 10 Küken für jede Behandlungsgruppe und für die Kontrollgruppe verwendet. Die mittleren Tibiaaschengewichte ausgedrückt in mg sind in der nachfolgenden Tabelle I angegeben.

The mark [4] stands for this setting: 100 ng single oral dose, 24 Std., vehicle 992 ± 81.
Where [5] appears, read: 100 ng single oral dose, 48 Std., vehicle 769 ± 90.

As for `C=C1/C(=C\C=C2/CCC[C@]3(C)[C@@H]([C@H](C)CCCC(C)(C)O)CC[C@@H]23)C[C@@H](O)C[C@@H]1O` [Verbindung A, 1a,25-Dihydroxycholecalciferol, reference compound], the “Serum ^45Ca” value is recorded as 1800 ± 181 cpm/0,2 ml in the test with Weissen Leghorn-Küken [1] (setting [4]); 1006 ± 133 cpm/0,2 ml in the test on Weissen Leghorn-Küken [1] (setting [5]); 710 ± 62 cpm/0,2 ml in the test with Weissen Leghorn-Küken [1] (200 ng single oral dose, 72 Std., vehicle 647 ± 69).

Regarding `C=C1/C(=C\C=C2/CCC[C@]3(C)[C@@H]([C@H](C)CCC(F)(F)C(C)(C)O)CC[C@@H]23)C[C@@H](O)C[C@@H]1O` [fluorierte Verbindung, 24,24-Difluor-la,25-dihydroxycholecalciferol], the “Serum ^45Ca” value is 2064 ± 170 cpm/0,2 ml in the test on Weissen Leghorn-Küken [1] (setting [4]); 1539 ± 99 cpm/0,2 ml in the test with Weissen Leghorn-Küken [1] (setting [5]); 1164 ± 90 cpm/0,2 ml in the test on Weissen Leghorn-Küken [1] (100 ng single oral dose, 72 Std., vehicle 647 ± 69); 998 ± 61 cpm/0,2 ml with Weissen Leghorn-Küken [1] (100 ng single oral dose, 96 Std., vehicle 586 ± 70). The “lang andauernde intestinale Calcium-Absorption” value in the test with Weissen Leghorn-Küken [1] (duration after 100 ng Einzeldosis, oral) turned out to be 96 Stunden. The “Mittlere Breite der Epiphysenplatte” value stood at 839 ± 18 Mikron in test [2] (1 ng/Ratte/Tag oral), 674 ± 18 Mikron in test [2] (3 ng/Ratte/Tag oral), 540 ± 16 Mikron in test [2] (10 ng/Ratte/Tag oral) and 412 ± 9 Mikron in test [2] (30 ng/Ratte/Tag oral). Also, the “Calcifizierung der Tibiaepiphysenplatte” value in test [2] (EHDP-blocked rats, summary in words of Tabelle III) is “die Calcifizierung der Tibiaepiphysenplatte bei EHDP-blockierten Ratten bewirkt”. Further, the “Mittleres Tibiaaschengewicht” value with Weissen Leghorn-Küken [3] (1 ng/Küken/Tag oral) is 111,5 ± 4,7 mg; in the test on Weissen Leghorn-Küken [3] (3 ng/Küken/Tag oral) it was 151,1 ± 8,2 mg; in the test with Weissen Leghorn-Küken [3] (10 ng/Küken/Tag oral) it was 227,1 ± 8,2 mg; with Weissen Leghorn-Küken [3] (30 ng/Küken/Tag oral), 244,8 ± 7,4 mg. The “antirachitische Aktivität” value in the test with Weissen Leghorn-Küken [3] (summary in words of Tabelle I) is on record as “beträchtliche antirachitische Aktivität”.
